The record followed here is US20070270421A1, “Novel pyridine Derivative and Pyrimidine Derivative (1)” (priority 2004, published 2007).

In this test the target is T1, HGFR (His6-HGFR cytoplasmic domain) (Homo sapiens, UniProt P08581).
T1 construct: made in house; host or cells: Spodoptera frugiperda Sf9 insect cells (baculovirus, pFastBac-HT)
T1 sequence (P08581 956-1390 limits assumed): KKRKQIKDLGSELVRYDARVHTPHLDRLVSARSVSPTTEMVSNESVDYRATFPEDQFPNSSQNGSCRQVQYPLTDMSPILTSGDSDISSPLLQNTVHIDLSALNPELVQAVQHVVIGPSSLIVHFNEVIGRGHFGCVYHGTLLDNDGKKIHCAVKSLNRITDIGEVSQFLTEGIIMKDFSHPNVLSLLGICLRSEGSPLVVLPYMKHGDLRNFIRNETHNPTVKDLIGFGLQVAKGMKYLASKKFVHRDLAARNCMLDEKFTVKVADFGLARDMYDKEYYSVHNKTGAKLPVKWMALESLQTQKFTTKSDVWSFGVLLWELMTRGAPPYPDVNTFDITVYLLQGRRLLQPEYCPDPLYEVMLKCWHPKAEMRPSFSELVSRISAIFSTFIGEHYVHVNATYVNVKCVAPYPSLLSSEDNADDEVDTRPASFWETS
The test can be described thus: Inhibitory activity against HGFR tyrosine kinase activity (HTRF). The test is classed as biochemical. As to conditions: biotin-poly(GT), ATP, 30° C. 10 min, read-out: IC50 (concentration necessary to inhibit HGFR kinase activity by 50%). The procedure, abridged: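 Baculovirus/Sf9-expressed N-terminal His6-tagged HGFR cytoplasmic domain (from Lys974), Ni-NTA purified, phosphorylated biotin-poly(GT) in Hepes pH 7.4 with MgCl2/MnCl2. ATP added as 4 μM solution; 10 min at 30° C., stopped with EDTA. Phosphotyrosine product detected by HTRF.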
As to `CN(C)CC1CCN(C(=O)Nc2cc(Oc3ccc(NC(=O)NC(=O)Cc4ccc(F)cc4)cc3F)ccn2)CC1` [Example 347, 2-{[4-(Dimethylaminomethyl)piperidin-1-yl]carbonylamino}-4-(2-fluoro-4-{3-[2-(4-fluorophenyl)acetyl]ureido}phenoxy)pyridine], the IC50 came to 62 nM.
Consider `O=C(Cc1ccc(F)cc1)NC(=S)Nc1ccc(Oc2cc(NC(=O)N3CCC(CN4CCCC4)CC3)ncn2)c(F)c1` [Example 349, 4-(Pyrrolidin-1-ylmethyl)piperidine-1-carboxylic acid [6-(2-fluoro-4-{3-[2-(4-fluorophenyl)acetyl]thioureido}phenoxy)pyrimidin-4-yl]amide], for which the IC50 was determined as 87 nM.
To `CN(C)CCN1CCC(N(C)C(=O)Nc2cc(Oc3ccc(NC(=O)NC(=O)Cc4ccccc4)cc3F)ccn2)CC1` [Example 353, 1-[1-(2-Dimethylaminoethyl)piperidin-4-yl]-3-{4-[2-fluoro-4-(3-phenylacetylureido)phenoxy]pyridin-2-yl}-1-methylurea] belongs 180 nM; to `CN(C)CCN1CCC(N(C)C(=O)Nc2cc(Oc3ccc(NC(=O)NC(=O)Cc4ccc(F)cc4)cc3)ccn2)CC1` [Example 354, 1-[1-(2-Dimethylaminoethyl)piperidin-4-yl]-3-[4-(4-{3-[2-(4-fluorophenyl)acetyl]ureido}phenoxy)pyridin-2-yl]-1-methylurea], 160 nM; to `CN(C)CCN1CCN(C(=O)Nc2cc(Oc3ccc(NC(=O)NC(=O)Cc4ccc(F)cc4)cc3F)ccn2)CC1` [Example 362, 2-{[4-(2-Dimethylaminoethyl)piperazin-1-yl]carbonylamino}-4-(2-fluoro-4-{3-[2-(4-fluorophenyl)acetyl]ureido}phenoxy)pyridine], 130 nM.
As for `CN(C)CCN1CCN(C(=O)Nc2cc(Oc3ccc(NC(=O)NC(=O)Cc4ccccc4)cc3F)ccn2)CC1` [Example 364, 2-{[4-(2-Dimethylaminoethyl)piperazin-1-yl]carbonylamino}-4-{2-fluoro-4-[3-(2-phenylacetyl)ureido]phenoxy}pyridine], the IC50 came to 97 nM.
Take `CN(C)C1CN(C2CCN(C(=O)Nc3cc(Oc4ccc(NC(=S)NC(=O)Cc5ccccc5)cc4F)ccn3)CC2)C1` [Example 373, 4-(3-Dimethylaminoazetidin-1-yl)piperidine-1-carboxylic acid {4-[2-fluoro-4-(3-phenylacetylthioureido)phenoxy]pyridin-2-yl}amide]: the IC50 amounted to 77 nM.
Take `CN1CC(N2CCN(C(=O)Nc3cc(Oc4ccc(NC(=O)NC(=O)Cc5ccc(F)cc5)cc4)ccn3)CC2)C1` [Example 376, 4-(1-Methylazetidin-3-yl)piperazine-1-carboxylic acid [4-(4-{3-[2-(4-fluorophenyl)acetyl]ureido}phenoxy)pyridin-2-yl]amide]: the IC50 came to 65 nM.
As to `CN1CC(N2CCN(C(=O)Nc3cc(Oc4ccc(NC(=O)NC(=O)Cc5ccccc5)cc4F)ccn3)CC2)C1` [Example 377, 4-(1-Methylazetidin-3-yl)piperazine-1-carboxylic acid {4-[2-fluoro-4-(3-phenylacetylureido)phenoxy]pyridin-2-yl}amide], the IC50 was 68 nM.
Turning to `CN1CC(N2CCN(C(=O)Nc3cc(Oc4ccc(NC(=S)NC(=O)Cc5ccccc5)cc4F)ccn3)CC2)C1` [Example 381], the IC50 is 83 nM.
For the molecule `CN1CC(N2CCN(C(=O)Nc3cc(Oc4ccc(NC(=O)NC(=O)Cc5ccc(F)cc5)cc4F)ccn3)CC2)C1` [Example 383, 4-(1-Methylazetidin-3-yl)piperazine-1-carboxylic acid [4-(2-fluoro-4-{3-[2-(4-fluorophenyl)acetyl]ureido}phenoxy)pyridin-2-yl]amide], the IC50 was determined as 94 nM.
Consider `O=C(Cc1ccccc1)NC(=O)Nc1ccc(Oc2ccnc(NC(=O)N3CCN(CCN4CCC4)CC3)c2)c(F)c1` [Example 387, 4-[2-(Azetidin-1-yl)ethyl]piperazine-1-carboxylic acid {4-[2-fluoro-4-(3-phenylacetylureido)phenoxy]pyridin-2-yl}amide], for which the IC50 was 120 nM.
With `O=C(Cc1ccc(F)cc1)NC(=O)Nc1ccc(Oc2ccnc(NC(=O)N3CCN(CCN4CCC4)CC3)c2)cc1` [Example 389, 4-[2-(Azetidin-1-yl)ethyl]piperazine-1-carboxylic acid [4-(4-{3-[2-(4-fluorophenyl)acetyl]ureido}phenoxy)pyridin-2-yl]amide], the IC50 was determined as 130 nM.
For `O=C(Cc1ccc(F)cc1)NC(=O)Nc1ccc(Oc2ccnc(NC(=O)N3CCC(CN4CCCC4)CC3)c2)cc1` [Example 390, 4-(Pyrrolidin-1-ylmethyl)piperidine-1-carboxylic acid [4-(4-{3-[2-(4-fluorophenyl)acetyl]ureido}phenoxy)pyridin-2-yl]amide], the IC50 turned out to be 120 nM.
For the molecule `CN1CC(N2CCC(N(C)C(=O)Nc3cc(Oc4ccc(NC(=S)NC(=O)Cc5ccc(F)cc5)cc4F)ncn3)CC2)C1` [Example 391, 3-(6-{2-Fluoro-4-[3-(4-fluorophenyl)acetylthioureido]phenoxy}pyrimidin-4-yl)-1-methyl-1-[1-(1-methylazetidin-3-yl)piperidin-4-yl]urea], the IC50 was 83 nM.
To `O=C(Cc1ccc(F)cc1)NC(=S)Nc1ccc(Oc2cc(NC(=O)N3CCC(CN4CCC4)CC3)ncn2)c(F)c1` [Example 392, 4-(Azetidin-1-ylmethyl)piperidine-1-carboxylic acid [6-(2-fluoro-4-{3-[2-(4-fluorophenyl)acetyl]thioureido}phenoxy)pyrimidin-4-yl]amide] belongs 55 nM.
`O=C(Cc1ccccc1)NC(=S)Nc1ccc(Oc2cc(NC(=O)N3CCC(CN4CCC4)CC3)ncn2)c(F)c1` [Example 393, 4-(Azetidin-1-ylmethyl)piperidine-1-carboxylic acid {6-[2-fluoro-4-(3-phenylacetylthioureido)phenoxy]pyrimidin-4-yl}amide]: the IC50 was 56 nM.
Then `O=C(Cc1ccc(F)cc1)NC(=S)Nc1ccc(Oc2ccnc(NC(=O)N3CCC(CN4CCC4)CC3)c2)cc1` [Example 394, 4-(Azetidin-1-ylmethyl)piperidine-1-carboxylic acid [4-(4-{3-[2-(4-fluorophenyl)acetyl]thioureido}phenoxy)pyridin-2-yl]amide], with 45 nM.
For `O=C(Cc1ccccc1)NC(=S)Nc1ccc(Oc2ccnc(NC(=O)N3CCC(CN4CCC4)CC3)c2)c(F)c1` [Example 395, 4-(Azetidin-1-ylmethyl)piperidine-1-carboxylic acid {4-[2-fluoro-4-(3-phenylacetylthioureido)phenoxy]pyridin-2-yl}amide], the IC50 amounted to 47 nM.
Take `O=C(Cc1ccccc1)NC(=S)Nc1ccc(Oc2ccnc(NC(=O)N3CCN(CCN4CCC4)CC3)c2)c(F)c1` [Example 397, 4-[2-(Azetidin-1-yl)ethyl]piperazine-1-carboxylic acid {4-[2-fluoro-4-(3-phenylacetylthioureido)phenoxy]pyridin-2-yl}amide]: the IC50 was 55 nM.
Consider `O=C(Cc1ccc(F)cc1)NC(=S)Nc1ccc(Oc2ccnc(NC(=O)N3CCN(CCN4CCC4)CC3)c2)cc1` [Example 398, 4-[2-(Azetidin-1-yl)ethyl]piperazine-1-carboxylic acid [4-(4-{3-[2-(4-fluorophenyl)acetyl]thioureido}phenoxy)pyridin-2-yl]amide], for which the IC50 was 47 nM.
